Measurements: patent publication US20140243286A1, “BROMODOMAIN LIGANDS CAPABLE OF DIMERIZING IN AN AQUEOUS SOLUTION, AND METHODS OF USING SAME” (Coferon, Inc., priority 2011, published 2014)
Read-outs that look alike come from different tables or passages of the source.

How the values were obtained:
BRD2 = BRD2 (Homo sapiens, UniProt P25440); assay: Fluorescence anisotropy (FA) binding assay, BRD2
Description: (§1) Fluorescence Anisotropy (FA) Binding Assays.
(§2) FA assays were performed as described in Chung et al., J. Med Chem., 2011 54(11): 3827-38 except that protein concentrations were 125 nM and plates were read on a Spectramax M5 plate reader.

BRD3 = BRD3 (Homo sapiens, UniProt Q15059); assay: Fluorescence anisotropy (FA) binding assay, BRD3
Description: as §1, §2

BRD4 = BRD4 (Homo sapiens, UniProt O60885); assay: Fluorescence anisotropy (FA) binding assay, BRD4
Description: as §1, §2

[1] = BRD2, protein 125 nM, read-out: IC50 range (FA assay) BRD2, BRD-E monomers
[2] = BRD3, protein 125 nM, read-out: IC50 range (FA assay) BRD3, BRD-E monomers
[3] = BRD4, protein 125 nM, read-out: IC50 range (FA assay) BRD4, BRD-E monomers

Sequence of BRD2 (P25440 whole entry): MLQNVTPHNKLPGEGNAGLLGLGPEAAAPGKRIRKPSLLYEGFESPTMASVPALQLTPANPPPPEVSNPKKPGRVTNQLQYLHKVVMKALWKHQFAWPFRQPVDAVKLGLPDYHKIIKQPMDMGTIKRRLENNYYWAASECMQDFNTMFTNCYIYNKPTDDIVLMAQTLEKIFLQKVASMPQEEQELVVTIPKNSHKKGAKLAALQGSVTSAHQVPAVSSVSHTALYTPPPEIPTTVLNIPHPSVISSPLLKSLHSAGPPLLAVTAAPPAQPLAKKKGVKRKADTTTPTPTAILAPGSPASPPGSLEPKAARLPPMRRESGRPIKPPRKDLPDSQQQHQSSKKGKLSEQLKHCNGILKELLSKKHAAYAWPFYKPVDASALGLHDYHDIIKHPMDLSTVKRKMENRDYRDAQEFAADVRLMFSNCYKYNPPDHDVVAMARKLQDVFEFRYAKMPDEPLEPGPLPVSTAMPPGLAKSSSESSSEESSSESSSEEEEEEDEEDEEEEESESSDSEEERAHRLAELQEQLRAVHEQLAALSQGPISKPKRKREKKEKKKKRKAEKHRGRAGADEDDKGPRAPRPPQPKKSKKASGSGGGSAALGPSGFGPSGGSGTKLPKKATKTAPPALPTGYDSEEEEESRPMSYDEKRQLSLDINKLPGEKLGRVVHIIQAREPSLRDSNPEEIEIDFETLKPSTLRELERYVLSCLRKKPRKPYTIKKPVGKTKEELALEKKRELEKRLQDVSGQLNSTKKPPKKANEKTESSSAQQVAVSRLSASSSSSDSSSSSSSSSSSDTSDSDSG
Sequence of BRD3 (Q15059 whole entry): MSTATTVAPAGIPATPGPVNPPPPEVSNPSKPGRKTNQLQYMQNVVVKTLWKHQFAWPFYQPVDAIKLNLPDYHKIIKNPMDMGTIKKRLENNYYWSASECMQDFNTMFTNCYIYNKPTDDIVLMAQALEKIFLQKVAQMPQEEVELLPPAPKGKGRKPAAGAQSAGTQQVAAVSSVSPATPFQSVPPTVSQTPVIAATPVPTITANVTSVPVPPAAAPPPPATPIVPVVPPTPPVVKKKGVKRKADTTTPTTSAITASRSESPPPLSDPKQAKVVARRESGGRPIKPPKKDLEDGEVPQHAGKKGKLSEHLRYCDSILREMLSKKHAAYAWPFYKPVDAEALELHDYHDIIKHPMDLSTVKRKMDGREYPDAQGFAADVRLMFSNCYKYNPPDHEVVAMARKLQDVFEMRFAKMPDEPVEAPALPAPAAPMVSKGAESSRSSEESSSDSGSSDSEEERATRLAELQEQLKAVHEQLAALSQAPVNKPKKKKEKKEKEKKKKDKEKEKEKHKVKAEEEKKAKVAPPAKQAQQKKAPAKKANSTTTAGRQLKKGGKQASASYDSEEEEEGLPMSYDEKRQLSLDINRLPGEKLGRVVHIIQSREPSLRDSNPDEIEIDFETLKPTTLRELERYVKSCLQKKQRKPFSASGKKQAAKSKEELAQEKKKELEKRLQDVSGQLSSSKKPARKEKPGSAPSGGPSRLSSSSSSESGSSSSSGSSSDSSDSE

Compound	IC50 (BRD2) [nM]	IC50 (BRD3) [nM]	IC50 (BRD4) [nM]	IC50 (BRD2; [1]) [nM]	IC50 (BRD3; [2]) [nM]	IC50 (BRD4; [3]) [nM]
COc1ccc2c(c1)C(c1ccc(Cl)cc1)=N[C@@H](CC(=O)NCCNC(=O)c1ccc(B(O)O)cc1)c1nnc(C)n1-2 [BRD-E-01, (4-((2-(2-((4S)-6-(4-chlorophenyl)-8-methoxy-1-methyl-4H-benzo[f][1,2,4]triazolo[4,3-a][1,4]diazepin-4-yl)acetamido)ethyl)carbamoyl)phenyl)boronic acid]	50 to 1000	50 to 1000	50 to 1000			
COc1ccc2c(c1)C(c1ccc(Cl)cc1)=N[C@@H](CC(=O)NCCNC(=O)c1cccc(B(O)O)c1)c1nnc(C)n1-2 [BRD-E-02, (3-((2-(2-((4S)-6-(4-chlorophenyl)-8-methoxy-1-methyl-4H-benzo[f][1,2,4]triazolo[4,3-a][1,4]diazepin-4-yl)acetamido)ethyl)carbamoyl)phenyl)boronic acid]	50 to 1000	50 to 1000	50 to 1000			
COc1ccc2c(c1)C(c1ccc(Cl)cc1)=N[C@@H](CC(=O)NCCCNC(=O)c1ccc(B(O)O)cc1)c1nnc(C)n1-2 [BRD-E-03, (4-((3-(2-((4S)-6-(4-chlorophenyl)-8-methoxy-1-methyl-4H-benzo[f][1,2,4]triazolo[4,3-a][1,4]diazepin-4-yl)acetamido)propyl)carbamoyl)phenyl)-boronic acid]				50 to 1000	50 to 1000	50 to 1000
COc1ccc2c(c1)C(c1ccc(Cl)cc1)=N[C@@H](CC(=O)NCCCNC(=O)c1cccc(B(O)O)c1)c1nnc(C)n1-2 [BRD-E-04, (3-((3-(2-((4S)-6-(4-chlorophenyl)-8-methoxy-1-methyl-4H-benzo[f][1,2,4]triazolo[4,3-a][1,4]diazepin-4-yl)acetamido)propyl)carbamoyl)phenyl)-boronic acid]				50 to 1000	50 to 1000	50 to 1000
COc1ccc2c(c1)C(c1ccc(Cl)cc1)=N[C@@H](CC(=O)NCCCCNC(=O)c1ccc(B(O)O)cc1)c1nnc(C)n1-2 [BRD-E-05, (4-((4-(2-((4S)-6-(4-chlorophenyl)-8-methoxy-1-methyl-4H-benzo[f][1,2,4]triazolo[4,3-a][1,4]diazepin-4-yl)acetamido)butyl)carbamoyl)phenyl)boronic acid]				50 to 1000	50 to 1000	50 to 1000
COc1ccc2c(c1)C(c1ccc(Cl)cc1)=N[C@@H](CC(=O)NCCCCNC(=O)c1cccc(B(O)O)c1)c1nnc(C)n1-2 [BRD-E-06, (3-((4-(2-((4S)-6-(4-chlorophenyl)-8-methoxy-1-methyl-4H-benzo[f][1,2,4]triazolo[4,3-a][1,4]diazepin-4-yl)acetamido)butyl)carbamoyl)phenyl)boronic acid]				50 to 1000	50 to 1000	50 to 1000
COc1ccc2c(c1)C(c1ccc(Cl)cc1)=N[C@@H](CC(=O)NCCCCCNC(=O)c1ccc(B(O)O)cc1)c1nnc(C)n1-2 [BRD-E-07, (4-((5-(2-((4S)-6-(4-chlorophenyl)-8-methoxy-1-methyl-4H-benzo[f][1,2,4]triazolo[4,3-a][1,4]diazepin-4-yl)acetamido)pentyl)carbamoyl)phenyl)-boronic acid]	50 to 1000	50 to 1000	50 to 1000			
COc1ccc2c(c1)C(c1ccc(Cl)cc1)=N[C@@H](CC(=O)NCCCCCNC(=O)c1cccc(B(O)O)c1)c1nnc(C)n1-2 [BRD-E-08, (3-((5-(2-((4S)-6-(4-chlorophenyl)-8-methoxy-1-methyl-4H-benzo[f][1,2,4]triazolo[4,3-a][1,4]diazepin-4-yl)acetamido)pentyl)carbamoyl)phenyl)-boronic acid]				50 to 1000	50 to 1000	50 to 1000
COc1ccc2c(c1)C(c1ccc(Cl)cc1)=N[C@@H](CC(=O)NCc1ccc(B(O)O)cc1)c1nnc(C)n1-2 [BRD-E-09, (S)-(4-((2-(6-(4-chlorophenyl)-8-methoxy-1-methyl-4H-benzo[f][1,2,4]triazolo[4,3-a][1,4]diazepin-4-yl)acetamido)methyl)phenyl)boronic acid]				50 to 1000	50 to 1000	50 to 1000
COc1ccc2c(c1)C(c1ccc(Cl)cc1)=N[C@@H](CC(=O)NCc1cccc(B(O)O)c1)c1nnc(C)n1-2 [BRD-E-10, (S)-(3-((2-(6-(4-chlorophenyl)-8-methoxy-1-methyl-4H-benzo[f][1,2,4]triazolo[4,3-a][1,4]diazepin-4-yl)acetamido)methyl)phenyl)boronic acid]	50 to 1000	50 to 1000	50 to 1000			
COc1ccc2c(c1)C(c1ccc(Cl)cc1)=N[C@@H](CC(=O)NCCc1ccc(B(O)O)cc1)c1nnc(C)n1-2 [BRD-E-13, (S)-(4-(2-(2-(6-(4-chlorophenyl)-8-methoxy-1-methyl-4H-benzo[f][1,2,4]triazolo[4,3-a][1,4]diazepin-4-yl)acetamido)ethyl)phenyl)boronic acid]				1000 to 30000	50 to 1000	50 to 1000
COc1ccc2c(c1)C(c1ccc(Cl)cc1)=N[C@@H](CC(=O)NCCc1cccc(B(O)O)c1)c1nnc(C)n1-2 [BRD-E-14, (S)-(3-(2-(2-(6-(4-chlorophenyl)-8-methoxy-1-methyl-4H-benzo[f][1,2,4]triazolo[4,3-a][1,4]diazepin-4-yl)acetamido)ethyl)phenyl)boronic acid]				50 to 1000	50 to 1000	50 to 1000
CCNC(=O)C[C@@H]1N=C(c2ccc(Cl)cc2)c2cc(OCC(=O)Nc3cccc(B(O)O)c3)ccc2-n2c(C)nnc21 [BRD-E-15, (S)-(3-(2-((6-(4-chlorophenyl)-4-(2-(ethylamino)-2-oxoethyl)-1-methyl-4H-benzo[f][1,2,4]triazolo[4,3-a][1,4]diazepin-8-yl)oxy)acetamido)phenyl)boronic acid]				1000 to 30000	50 to 1000	50 to 1000
CCNC(=O)C[C@@H]1N=C(c2ccc(Cl)cc2)c2cc(OCC(=O)Nc3ccc(B(O)O)cc3)ccc2-n2c(C)nnc21 [BRD-E-16, (S)-(4-(2-((6-(4-chlorophenyl)-4-(2-(ethylamino)-2-oxoethyl)-1-methyl-4H-benzo[f][1,2,4]triazolo[4,3-a][1,4]diazepin-8-yl)oxy)acetamido)phenyl)boronic acid]				1000 to 30000	50 to 1000	50 to 1000
CCNC(=O)C[C@@H]1N=C(c2ccc(Cl)cc2)c2cc(OCCCC(=O)Nc3cccc(B(O)O)c3)ccc2-n2c(C)nnc21 [BRD-E-19]				50 to 1000	50 to 1000	50 to 1000
CCNC(=O)C[C@@H]1N=C(c2ccc(Cl)cc2)c2cc(OCCCCC(=O)Nc3cccc(B(O)O)c3)ccc2-n2c(C)nnc21 [BRD-E-20, (S)-(3-(5-((6-(4-chlorophenyl)-4-(2-(ethylamino)-2-oxoethyl)-1-methyl-4H-benzo[f][1,2,4]triazolo[4,3-a][1,4]diazepin-8-yl)oxy)pentanamido)phenyl)boronic acid]				50 to 1000	50 to 1000	50 to 1000
COc1ccc2c(c1)C(c1ccc(Cl)cc1)=N[C@@H](CC(=O)NCCNC(=O)Cc1ccc(B(O)O)cc1)c1nnc(C)n1-2 [BRD-E-27, (4-(2-((2-(2-((4S)-6-(4-chlorophenyl)-8-methoxy-1-methyl-4H-benzo[f][1,2,4]triazolo[4,3-a][1,4]diazepin-4-yl)acetamido)ethyl)amino)-2-oxoethyl)phenyl)boronic acid]				1000 to 30000		1000 to 30000
